Assay results taken from US9365587B2, “Synthesis of carbamoylpyridone HIV integrase inhibitors and intermediates” (Shionogi & Co., Ltd., priority 2008, dated 2016).

Columns and labels:
Details in all cases: crystal
[1] = pharmacokinetics of the crystals (BA, Cmax, Tmax); assay type: in vivo
[2] = solubility of the crystals in water or saline; assay type: physicochemical
[3] = stability of the crystals against heat or light; assay type: physicochemical

bioavailability (BA) [1]: high
maximum drug concentration (Cmax) [1]: high
maximum drug concentration time (Tmax) [1]: short
solubility in water or saline [2]: high
stability against heat or light [3]: high
SMILES: C[C@@H]1CCO[C@H]2Cn3cc(C(=O)NCc4ccc(F)cc4F)c(=O)c(O)c3C(=O)N12 [Compound 13]
